Each compound was assayed on HIV-IIIb (MT-4 cells) (assay: Test A: Antiviral Assays in MT4 Cells). Conditions: MT4, 120 h, MT-4 cells infected with HIV-IIIb, 5 days of incubation, CellTiter-Glo readout.
Format: cell-based
Protocol: The antiviral properties of a compound disclosed herein may be determined using Test A described below.
Test A: Antiviral Assays in MT4 Cells
For the antiviral assay utilizing MT-4 cells, 0.4 μL of […] test concentration of 3-fold serially diluted compound in DMSO was added to 40 μL of cell growth medium (RPMI 1640, 10% FBS, 1% penicillin/Streptomycin, 1% L-Glutamine, 1% HEPES) in each well of 384-well assay plates (10 concentrations) in quadruplicate.
1 mL aliquots of 2×10e6 MT-4 cells are pre-infected for 1 and 3 hrs respectively, @ 37° C. with 25 μL (MT4) or of either cell growth medium (mock-infected) or a fresh 1:250 dilution of an HIV-IIIb concentrated ABI stock (0.004 m.o.i. for MT4 cells). Infected and uninfected cells are diluted in cell growth medium and 35 μL of 2000 (for MT4) cells is added to each well of the assay plates.
Assay plates were then incubated in a 37° C. incubator. After 5 days of incubation, […] 2× concentrated CellTiter-Glo™ Reagent (catalog #G7573, Promega Biosciences, Inc., Madison, Wis.) was added to each well of the assay plate. Cell lysis was carried out by incubating at room temperature for 2-3 min and then chemiluminescence was read using the Envision reader (PerkinElmer).
In the case of `Cc1cc2c(ccc(=O)n2CC2CC2)c(-c2ccc3c4c(ccnc24)CCO3)c1[C@H](OC(C)(C)C)C(=O)O` (atropisomer, axis not shown) [Example 1, (S)-2-tert-Butoxy-2-((R)-1-(cyclopropylmethyl)-5-(2,3-dihydropyrano[4,3,2-de]quinolin-7-yl)-7-methyl-2-oxo-1,2-dihydroquinolin-6-yl)acetic acid], the EC50 is reported as 0.409 µM. In the case of `Cc1cc2c(ccc(=O)n2Cc2cccc(S(C)(=O)=O)c2)c(-c2ccc3c4c(ccnc24)CCO3)c1[C@H](OC(C)(C)C)C(=O)O` (atropisomer, axis not shown) [Example 2, (S)-2-tert-Butoxy-2-((R)-5-(2,3-dihydropyrano[4,3,2-de]quinolin-7-yl)-7-methyl-1-(3-(methylsulfonyl)benzyl)-2-oxo-1,2-dihydroquinolin-6-yl)acetic acid], the EC50 is reported as 0.46 µM. `Cc1cc2nc(OCc3cccc(C(F)(F)F)c3)ccc2c(-c2ccc3c4c(ccnc24)CCO3)c1[C@H](OC(C)(C)C)C(=O)O` (atropisomer, axis not shown) [Example 3, (S)-2-tert-Butoxy-2-((R)-5-(2,3-dihydropyrano[4,3,2-de]quinolin-7-yl)-7-methyl-2-(3-(trifluoromethyl)benzyloxy)quinolin-6-yl)acetic acid] showed an EC50 of 0.123 µM. For `Cc1cc2nc(OCc3cccc(S(C)(=O)=O)c3)ccc2c(-c2ccc3c4c(ccnc24)CCO3)c1[C@H](OC(C)(C)C)C(=O)O` (atropisomer, axis not shown) [Example 4, (S)-2-tert-Butoxy-2-((R)-5-(2,3-dihydropyrano[4,3,2-de]quinolin-7-yl)-7-methyl-2-(3-(methylsulfonyl)benzyloxy)quinolin-6-yl)acetic acid], the EC50 was 0.0136 µM. `Cc1cc2c(ccc(=O)n2Cc2cccc(C(F)(F)F)c2)c(-c2ccc3c4c(ccnc24)CCO3)c1[C@H](OC(C)(C)C)C(=O)O` (atropisomer, axis not shown) [Example 5, (S)-2-tert-Butoxy-2-((R)-5-(2,3-dihydropyrano[4,3,2-de]quinolin-7-yl)-7-methyl-2-oxo-1-(3-(trifluoromethyl)benzyl)-1,2-dihydroquinolin-6-yl)acetic acid] was tested, and the EC50 was 0.0307 µM. In the case of `Cc1cc2nc(OCc3ccc(C(N)=O)cc3)ccc2c(-c2ccc3c4c(ccnc24)CCO3)c1[C@H](OC(C)(C)C)C(=O)O` (atropisomer, axis not shown) [Example 8, (S)-2-tert-Butoxy-2-((R)-2-(4-carbamoylbenzyloxy)-5-(2,3-dihydropyrano[4,3,2-de]quinolin-7-yl)-7-methylquinolin-6-yl)acetic acid], the EC50 is reported as 0.0368 µM. `Cc1cc2nc(OCc3ccc(S(C)(=O)=O)cc3)ccc2c(-c2ccc3c4c(ccnc24)CCO3)c1[C@H](OC(C)(C)C)C(=O)O` (atropisomer, axis not shown) [Example 9, (S)-2-tert-Butoxy-2-((R)-5-(2,3-dihydropyrano[4,3,2-de]quinolin-7-yl)-7-methyl-2-(4-(methylsulfonyl)benzyloxy)quinolin-6-yl)acetic acid] showed an EC50 of 0.0212 µM. For `Cc1cc2nc(OCc3ccccc3S(C)(=O)=O)ccc2c(-c2ccc3c4c(ccnc24)CCO3)c1[C@H](OC(C)(C)C)C(=O)O` (atropisomer, axis not shown) [Example 10, (S)-2-tert-Butoxy-2-((R)-5-(2,3-dihydropyrano[4,3,2-de]quinolin-7-yl)-7-methyl-2-(2-(methylsulfonyl)benzyloxy)quinolin-6-yl)acetic acid], the EC50 was 0.00863 µM. Compound `Cc1cc2c(ccc(=O)n2Cc2ccc(C(F)(F)F)cc2)c(-c2ccc3c4c(ccnc24)CCO3)c1[C@H](OC(C)(C)C)C(=O)O` (atropisomer, axis not shown) [Example 11, (S)-2-tert-Butoxy-2-((R)-5-(2,3-dihydropyrano[4,3,2-de]quinolin-7-yl)-7-methyl-2-oxo-1-(4-(trifluoromethyl)benzyl)-1,2-dihydroquinolin-6-yl)acetic acid] has an EC50 of 0.983 µM. With `Cc1cc2nc(OCc3ccccc3)ccc2c(-c2ccc3c4c(ccnc24)CCO3)c1[C@H](OC(C)(C)C)C(=O)O` (atropisomer, axis not shown) [Example 12, (S)-2-((R)-2-(Benzyloxy)-5-(2,3-dihydropyrano[4,3,2-de]quinolin-7-yl)-7-methylquinolin-6-yl)-2-tert-butoxyacetic acid] the EC50 was 0.05 µM. In the case of `Cc1cc2nc(OCc3ccc(OC(F)(F)F)cc3)ccc2c(-c2ccc3c4c(ccnc24)CCO3)c1[C@H](OC(C)(C)C)C(=O)O` (atropisomer, axis not shown) [Example 13, (S)-2-tert-Butoxy-2-((R)-5-(2,3-dihydropyrano[4,3,2-de]quinolin-7-yl)-7-methyl-2-(4-(trifluoromethoxy)benzyloxy)quinolin-6-yl)acetic acid], the EC50 is reported as 0.285 µM. `Cc1cc2nc(OCc3cccc(OC(F)(F)F)c3)ccc2c(-c2ccc3c4c(ccnc24)CCO3)c1[C@H](OC(C)(C)C)C(=O)O` (atropisomer, axis not shown) [Example 14, (S)-2-tert-Butoxy-2-((R)-5-(2,3-dihydropyrano[4,3,2-de]quinolin-7-yl)-7-methyl-2-(3-(trifluoromethoxy)benzyloxy)quinolin-6-yl)acetic acid] showed an EC50 of 0.217 µM. In the case of `Cc1cc2c(ccc(=O)n2Cc2ccccc2OC(F)(F)F)c(-c2ccc3c4c(ccnc24)CCO3)c1[C@H](OC(C)(C)C)C(=O)O` (atropisomer, axis not shown) [Example 15, (S)-2-tert-Butoxy-2-((R)-5-(2,3-dihydropyrano[4,3,2-de]quinolin-7-yl)-7-methyl-2-oxo-1-(2-(trifluoromethoxy)benzyl)-1,2-dihydroquinolin-6-yl)acetic acid], the EC50 is reported as 0.359 µM. With `Cc1cc2c(ccc(=O)n2Cc2ccc(OC(F)(F)F)cc2)c(-c2ccc3c4c(ccnc24)CCO3)c1[C@H](OC(C)(C)C)C(=O)O` (atropisomer, axis not shown) [Example 16, (S)-2-tert-Butoxy-2-((R)-5-(2,3-dihydropyrano[4,3,2-de]quinolin-7-yl)-7-methyl-2-oxo-1-(4-(trifluoromethoxy)benzyl)-1,2-dihydroquinolin-6-yl)acetic acid] the EC50 was 1.61 µM. For `Cc1cc2nc(OCc3ccc(S(N)(=O)=O)cc3)ccc2c(-c2ccc3c4c(ccnc24)CCO3)c1[C@H](OC(C)(C)C)C(=O)O` (atropisomer, axis not shown) [Example 17, (S)-2-tert-Butoxy-2-((R)-5-(2,3-dihydropyrano[4,3,2-de]quinolin-7-yl)-7-methyl-2-(4-sulfamoylbenzyloxy)quinolin-6-yl)acetic acid], the EC50 was 0.084 µM. With `Cc1cc2c(ccc(=O)n2Cc2cccc(OC(F)(F)F)c2)c(-c2ccc3c4c(ccnc24)CCO3)c1[C@H](OC(C)(C)C)C(=O)O` (atropisomer, axis not shown) [Example 18, (S)-2-tert-Butoxy-2-((R)-5-(2,3-dihydropyrano[4,3,2-de]quinolin-7-yl)-7-methyl-2-oxo-1-(3-(trifluoromethoxy)benzyl)-1,2-dihydroquinolin-6-yl)acetic acid] the EC50 was 0.185 µM. With `Cc1cc2nc(OCc3ccccc3OC(F)(F)F)ccc2c(-c2ccc3c4c(ccnc24)CCO3)c1[C@H](OC(C)(C)C)C(=O)O` (atropisomer, axis not shown) [Example 19, (S)-2-tert-Butoxy-2-((R)-5-(2,3-dihydropyrano[4,3,2-de]quinolin-7-yl)-7-methyl-2-(2-(trifluoromethoxy)benzyloxy)quinolin-6-yl)acetic acid] the EC50 was 0.07 µM. `Cc1cc2c(ccc(=O)n2Cc2cc(C(F)(F)F)cc(C(F)(F)F)c2)c(-c2ccc3c4c(ccnc24)CCO3)c1[C@H](OC(C)(C)C)C(=O)O` (atropisomer, axis not shown) [Example 20, (S)-2-((R)-1-(3,5-Bis(trifluoromethyl)benzyl)-5-(2,3-dihydropyrano[4,3,2-de]quinolin-7-yl)-7-methyl-2-oxo-1,2-dihydroquinolin-6-yl)-2-tert-butoxyacetic acid] showed an EC50 of 0.09 µM. In the case of `Cc1cc2c(ccc(=O)n2Cc2ccncc2)c(-c2ccc3c4c(ccnc24)CCO3)c1[C@H](OC(C)(C)C)C(=O)O` (atropisomer, axis not shown) [Example 21, (S)-2-tert-Butoxy-2-((R)-5-(2,3-dihydropyrano[4,3,2-de]quinolin-7-yl)-7-methyl-2-oxo-1-(pyridin-4-ylmethyl)-1,2-dihydroquinolin-6-yl)acetic acid], the EC50 is reported as 0.755 µM. For `Cc1cc2c(ccc(=O)n2Cc2cccnc2)c(-c2ccc3c4c(ccnc24)CCO3)c1[C@H](OC(C)(C)C)C(=O)O` (atropisomer, axis not shown) [Example 22, (S)-2-tert-Butoxy-2-((R)-5-(2,3-dihydropyrano[4,3,2-de]quinolin-7-yl)-7-methyl-2-oxo-1-(pyridin-3-ylmethyl)-1,2-dihydroquinolin-6-yl)acetic acid], the EC50 was 0.318 µM. With `Cc1cc2c(ccc(=O)n2Cc2cnccn2)c(-c2ccc3c4c(ccnc24)CCO3)c1[C@H](OC(C)(C)C)C(=O)O` (atropisomer, axis not shown) [Example 23, (S)-2-tert-Butoxy-2-((R)-5-(2,3-dihydropyrano[4,3,2-de]quinolin-7-yl)-7-methyl-2-oxo-1-(pyrazin-2-ylmethyl)-1,2-dihydroquinolin-6-yl)acetic acid] the EC50 was 0.383 µM.

Source: patent publication US9376392B2, “2-(tert-butoxy)-2-(7-methylquinolin-6-yl) acetic acid derivatives for treating AIDS” (Gilead Sciences, Inc., priority 2012, dated 2016)
